The results in this text go back to US7452997B2 (priority 2004, dated 2008).

Where two headings read alike, the source gives them in different places. A value given as a limit tells only on which side of the number the result lay.

For test [1], the target named is T1, human CB1 receptor (Homo sapiens, UniProt P21554).
T1 construct: expressed in transfected cells; host or cells: SK-N-MC cells, stably transfected with pcDNA3 CB-1 (human); semi-purified membrane pellet
As to the kind of experiment: biochemical. In kind it is binding. The gist of the method:
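Radioligand binding was run at 30° C for 90 minutes, pH 7.5 Tris buffer containing 0.5 mg/mL fatty acid free BSA, on semi-purified membranes of stably transfected SK-N-MC cells. Filter-bound radioactivity was scintillation counted, with IC50 obtained by linear regression across compound concentrations.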

In test [2] the target is T2, human CB2 receptor (Homo sapiens, UniProt P34972). As to the kind of experiment: Binding assay, cannabinoid CB2 receptor ([3H]-CP-55,940 displacement). As to conditions: Cannabinoid CB2 Receptor Binding IC50, human CB2 receptor, SK-N-MC cell membranes, radioligand CP-55,940 0.2 nM. A digest of the protocol:
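Displacement of [3H]-CP-55,940 (0.2 nM) was measured over 90 min at 30 °C (pH 7.5 Tris/MgCl2/EDTA buffer with BSA), using semi-purified membranes of human CB2-transfected SK-N-MC cells. Bound counts collected on GF/C filters, 10 uM WIN 55,212 as nonspecific control; IC50 from varied concentrations.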

Test [3] concerns the target T1, human CB1 receptor. As to the kind of experiment: Functional cell-based assay, CB1 receptor mediated change in CRE β-gal expression (agonist / inverse agonist). An excerpt:
(§1) Functional Cell-Based Assay for CB1 or CB2 Agonist and Inverse Agonist Effects on Intra-Cellular Adenylate Cyclase Activity
(§2) The CB1 and CB2 receptors are G-protein coupled receptors (GPCR) which influence cell function via the Gi-protein. These receptors modulate the activity of intracellular adenylate cyclase which in turn produces the intracellular signal messenger cyclic-AMP (cAMP).
(§3) At baseline, or during non-ligand bound conditions, these receptors are constitutively active and tonically suppress adenylate cyclase activity. The binding of an agonists causes further receptor activation and produces additional suppression of adenylate cyclase activity. The binding of an inverse agonist inhibits the constitutive activity of the receptors and results in an increase in adenylate cyclase activity.
(§4) By monitoring intracellular adenylate cyclase activity, the ability of compounds to act as agonists or inverse agonists can be determined.
(§5) Test compounds were evaluated in SK-N-MC cells which, using standard transfection procedures, were stably transfected with human cDNA for pcDNA3-CRE β-gal and pcDNA3 CB1 receptor (human) or pcDNA3 CB2 receptor (human). By expressing CRE β-gal, the cells produced β-galactosidase in response to CRE promoter activation by cAMP. Cells expressing CRE β-gal and either the human CB1 or CB2 receptor will produce less β-galactosidase when treated with a CB1/CB2 agonist and will produce more β-galactosidase when treated with a CB1/CB2 inverse agonist.
(§6) The cells were grown in 96-well plates under standard cell culture conditions at 37° C. in a 5% CO2 atmosphere. After 3 days, the media was removed and a test compound in media (wherein the media was supplemented with 2 mM L-glutamine, […] sodium pyruvate, 0.1% low fatty acid FBS (fetal bovine serum) and antibiotics) was added to the cell. The plates were incubated for 30 minutes at 37° C. and the plate cells were then treated with forskolin over a 4-6 hour period, then washed and lysed. The β-galactosidase activity was quantitated using commercially available kit reagents (Promega Corp. Madison, Wis.) and a VMAX Plate Reader (Molecular Devices, Inc).
(§7) The change in β-galactosidase activity was determined by setting a vehicle treated cell's activity value at 100% and expressing the β-galactosidase activity measured in a corresponding compound treated cell as a percent of the vehicle treated cell activity.
(§8) The EC50 values for compounds tested were calculated by linear regression and were obtained from studies in which varying compound concentrations were used.

In test [4] the target is T2, human CB2 receptor. As to the kind of experiment: Functional cell-based assay, CB2 receptor mediated change in CRE β-gal expression (agonist / inverse agonist). As to conditions: SK-N-MC cells, forskolin.
Text: as §1, §2, §3, §4, §5, §6
For cells expressing CRE β-gal and the CB2 receptor, CB2 agonists reduced β-galactosidase activity in a dose-dependent manner and CB2 inverse agonists increased β-galactosidase activity in a dose-dependent manner.
as §7, §8

Setting [5] is: agonist, read-out: CB2 Receptor Functional Agonist EC50.
Where [6] appears, read: inverse agonist, read-out: CB2 Receptor Functional Inverse Agonist EC50.

T1 sequence (P21554 whole entry): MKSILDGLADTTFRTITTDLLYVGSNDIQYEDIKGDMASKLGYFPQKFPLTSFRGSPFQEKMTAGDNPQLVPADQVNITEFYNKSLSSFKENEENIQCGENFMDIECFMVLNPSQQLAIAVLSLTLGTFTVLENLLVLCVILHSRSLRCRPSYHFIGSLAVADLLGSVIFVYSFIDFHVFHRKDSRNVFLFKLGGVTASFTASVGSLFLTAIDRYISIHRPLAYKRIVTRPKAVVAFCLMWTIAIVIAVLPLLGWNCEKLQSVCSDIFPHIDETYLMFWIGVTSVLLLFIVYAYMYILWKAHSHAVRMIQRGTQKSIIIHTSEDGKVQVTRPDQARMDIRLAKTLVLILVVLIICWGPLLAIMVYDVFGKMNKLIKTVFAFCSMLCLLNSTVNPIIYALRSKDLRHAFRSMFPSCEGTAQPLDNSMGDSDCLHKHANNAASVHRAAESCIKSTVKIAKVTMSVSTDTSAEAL
T2 sequence (P34972 whole entry): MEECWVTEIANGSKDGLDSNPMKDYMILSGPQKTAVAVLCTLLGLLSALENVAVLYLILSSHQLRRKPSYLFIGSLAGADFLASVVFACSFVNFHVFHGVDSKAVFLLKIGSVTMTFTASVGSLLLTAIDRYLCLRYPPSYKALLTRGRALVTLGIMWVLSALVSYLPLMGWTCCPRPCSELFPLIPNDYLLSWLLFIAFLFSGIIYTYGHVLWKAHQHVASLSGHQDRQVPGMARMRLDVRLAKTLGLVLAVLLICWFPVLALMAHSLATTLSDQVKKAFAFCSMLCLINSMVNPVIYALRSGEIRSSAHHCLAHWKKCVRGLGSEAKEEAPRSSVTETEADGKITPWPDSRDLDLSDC

For the molecule `CCOC(=O)[C@@H]1CCCC[C@@H]1NC(=O)c1nn(Cc2ccccc2)c2c1CCCC2` (relative stereo) [compound 38], the IC50 against human CB1 receptor [1] stood at 6 nM; on human CB2 receptor [2] it was 3.3 nM. At human CB1 receptor [3], this molecule came in with an EC50 of 103 nM.
For `CC(NS(=O)(=O)C=Cc1nn(-c2ccc(F)cc2)c2c1CCCC2CCc1ccccc1)c1ccccc1` (stereo not shown) [Cpd 258, 2-[1-(4-fluoro-phenyl)-7-phenethyl-4,5,6,7-tetrahydro-1H-indazol-3-yl]-ethenesulfonic acid (1-phenyl-ethyl)-amide], the EC50 at human CB1 receptor [3] amounted to 480 nM.
For `CC(NS(=O)(=O)C=Cc1nn(-c2ccc(F)cc2)c2c1CCCC2CCc1ccccc1)C1CCCCC1` (stereo not shown) [Cpd 259, 2-[1-(4-fluoro-phenyl)-7-phenethyl-4,5,6,7-tetrahydro-1H-indazol-3-yl]-ethenesulfonic acid (1-cyclohexyl-ethyl)-amide], at human CB1 receptor [3] (SK-N-MC cells, CRE β-gal, human CB1 receptor, forskolin, inverse agonist, read-out: CB1 Receptor Functional Inverse Agonist EC50), the EC50 worked out at 610 nM.
Molecule `O=C(NN1CCCCC1)c1nn(-c2ccc(Cl)cc2Cl)c2c1CCCC2=Cc1ccc(F)cc1` [Cpd 297, 1-(2,4-dichloro-phenyl)-7-(4-fluoro-benzylidene)-4,5,6,7-tetrahydro-1H-indazole-3-carboxylic acid piperidin-1-ylamide] displayed an IC50 on human CB1 receptor [1] of 13 nM. In addition, the EC50 on human CB1 receptor [3] is 5 nM.
As to `COc1cccc(C2CCCc3c(C(=O)N[C@H](CCl)c4ccccc4)nn(-c4ccc(Cl)cc4Cl)c32)c1` (stereo partly drawn) [Cpd 316, 1-(2,4-dichloro-phenyl)-7-(3-methoxy-phenyl)-4,5,6,7-tetrahydro-1H-indazole-3-carboxylic acid [(1S)-2-chloro-1-phenyl-ethyl]-amide], the response at human CB1 receptor [3] was half-maximal at 46 nM (EC50).
Same read-out and setting: in the case of `CCOC(=O)C1CCc2nn(-c3ccccc3)c(C(=O)NC34CC5CC(CC(C5)C3)C4)c2C1` (stereo not shown) [compound 91] it was 3370 nM.
As to `CC(NC(=O)c1nn(CC2CCCCC2)c2c1CCCC2)C12CC3CC(CC(C3)C1)C2` (stereo not shown) [compound 123], the results for the IC50 against human CB1 receptor [1] and at human CB2 receptor [2] were 7.5 nM and 4.6 nM, respectively. Moreover, the EC50 at human CB2 receptor [4] (setting [5]) is 7.5 nM.
In the case of `CC(NC(=O)c1nn(-c2ccc(F)cc2)c2c1CCCC2c1ccccc1)C12CC3CC(CC(C3)C1)C2` (stereo not shown) [compound 146], at human CB1 receptor [3], it took 1520 nM to reach a half-maximal effect (EC50).
As for `CCOC(=O)C1CCc2c(c(C(=O)NC3C4(C)CCC(C4)C3(C)C)nn2Cc2ccccc2)C1` (stereo not shown) [compound 149], the IC50 against human CB1 receptor [1] came to 67 nM; at human CB2 receptor [2] it was 8 nM. Also, at human CB2 receptor [4] (setting [6]), the EC50 amounted to 7.9 nM.
For `CCOC(=O)[C@H]1C2CCC(C2)[C@H]1NC(=O)c1nn(-c2ccc(F)cc2)c2c1CCCC2CCc1ccccc1` (stereo partly shown) [compound 154], the figures for the IC50 against human CB1 receptor [1] and on human CB2 receptor [2] were 60 nM and 370 nM, respectively. In addition, the EC50 on human CB2 receptor [4] (setting [5]) turned out to be 9 nM.
For the molecule `CCOC(=O)C1CCc2c(C(=O)NCC34CC5CC(CC(C5)C3)C4)nn(Cc3ccccc3)c2C1` (stereo not shown) [compound 156], the results for the IC50 against human CB1 receptor [1] and at human CB2 receptor [2] were 97 nM and 2 nM, respectively. Further, the EC50 on human CB2 receptor [4] (setting [6]) is 35 nM.
For `CCOC(=O)C1CCc2c(C(=O)NC34CC5CC(CC3C5)C4)nn(Cc3ccccc3)c2C1` (stereo not shown) [compound 157], in that order: 30 nM, 2 nM and 1.5 nM.
As for `O=C(NC12CC3CC(CC(C3)C1)C2)c1nn(-c2ccc(F)cc2)c2c1CCCC2c1ccccc1` (stereo not shown) [compound 165], on human CB2 receptor [2], the IC50 worked out at 800 nM. Moreover, a half-maximal response at human CB1 receptor [3] (EC50) required 1030 nM.
For the molecule `CC(NC(=O)c1nn(C2CCCCC2)c2c1CCCC2)C1CCCCC1` (stereo not shown) [compound 184], the values for the IC50 against human CB1 receptor [1] and at human CB2 receptor [2] were 50 nM and 20 nM, respectively. Also, at human CB2 receptor [4] (setting [5]), the EC50 stood at 100 nM.
For `C[C@@H](NC(=O)c1nn(C2CCCCC2)c2c1CCCC2)C1CCCCC1` [compound 195], in that order: 100 nM, 20 nM and 5.5 nM.
For `CC12CCC(C1)C(C)(C)[C@H]2NC(=O)c1nn(C2CCCCC2)c2c1CCCC2` (stereo partly shown) [compound 207], in that order: 82.4 nM, 1.6 nM and 10 nM.
Turning to `CCOC(=O)[C@@H]1CCc2c(c(C(=O)NC3C4CC5CC(C4)CC3C5)nn2Cc2ccccc2)C1` (stereo partly shown) [compound 211], the IC50 amounted to 5 nM against human CB1 receptor [1] and 0.7 nM on human CB2 receptor [2]. For the same molecule, the EC50 on human CB2 receptor [4] (setting [6]) came to 16 nM.
Turning to `C[C@@H](NC(=O)c1nn(C2CCCCC2)c2c1CCCC2)C12CC3CC(CC(C3)C1)C2` [compound 212], the IC50 came to 260 nM on human CB1 receptor [1] and 74 nM on human CB2 receptor [2]. Besides, on human CB2 receptor [4] (setting [5]), the EC50 was found to be 3.7 nM.
For `CCOC(=O)[C@@H]1CCc2c(c(C(=O)NC(C)C34CC5CC(CC(C5)C3)C4)nn2C2CCCCC2)C1` (stereo partly shown) [compound 214], the IC50 on human CB1 receptor [1] was 1230 nM; on human CB2 receptor [2] it was 15.3 nM. Moreover, the EC50 at human CB2 receptor [4] (setting [6]) turned out to be 120 nM.
Turning to `CC12CCC(C1)C(C)(C)[C@@H]2NC(=O)c1nn(Cc2ccccc2)c2c1CCCC2` (stereo partly shown) [compound 217], the 50% inhibitory concentration (IC50) against human CB1 receptor [1] was found to be 2.6 nM; at human CB2 receptor [2], 0.1 nM. On human CB2 receptor [4] (setting [5]), the EC50 was 0.052 nM.
Take `COC(=O)[C@H]1CCc2c(c(C(=O)NC3C4CC5CC(C4)CC3C5)nn2C2CCCCC2)C1` (stereo partly shown) [compound 218]: the values for the IC50 at human CB1 receptor [1] and on human CB2 receptor [2] were 400 nM and 3 nM, respectively. In addition, the EC50 at human CB2 receptor [4] (setting [6]) came out at 6 nM.
The like results for `COC(=O)[C@@H]1CCc2c(c(C(=O)NC3C4CC5CC(C4)CC3C5)nn2C2CCCCC2)C1` (stereo partly shown) [compound 219] were, in that order, 100 nM, 4 nM and 320 nM.
The like results for `CC(C)OC(=O)C1CCc2c(c(C(=O)NC3C4CC5CC(C4)CC3C5)nn2C2CCCCC2)C1` (stereo not shown) [compound 232] were, in that order, 2400 nM, 30 nM and 360 nM.
As to `CCOC(=O)[C@@H]1C2CCC(C2)[C@@H]1NC(=O)c1nn(C2CCCCC2)c2c1CCCC2` (stereo partly shown) [compound 278], the IC50 at human CB1 receptor [1] came to 403 nM; at human CB2 receptor [2] it was 37.5 nM. In addition, the EC50 on human CB2 receptor [4] (setting [5]) is 0.78 nM.
As to `CCOC(=O)C1CCc2c(C(=O)N[C@H](C)C3CCCCC3)nn(C3CCCCC3)c2C1` (stereo partly shown) [compound 284], the IC50 on human CB1 receptor [1] is 350 nM; at human CB2 receptor [2] it was 45 nM. Besides, at human CB2 receptor [4] (setting [6]), the EC50 was 360 nM.
In turn, `C[C@@H](NC(=O)c1nn(-c2ccc(Cl)cc2Cl)c2c1CCC/C2=C\c1ccc(F)cc1)C1CCCCC1` [compound 295] returned an IC50 at human CB1 receptor [1] of 3 nM. The molecule also came in with an EC50 on human CB1 receptor [3] of less than 30 nM.
For `C[C@@H](NC(=O)c1nn(-c2ccc(Cl)cc2Cl)c2c1CCC/C2=C\c1ccc(F)cc1)c1ccccc1` [compound 296], in that order: 5 nM and 13 nM.
For `O=C(NN1CCOCC1)c1nn(-c2ccc(Cl)cc2Cl)c2c1CCC/C2=C\c1ccc(F)cc1` [compound 298], in that order: 64 nM and 4 nM.
`C[C@@H](NC(=O)c1nn(-c2ccc(Cl)cc2Cl)c2c1CCC/C2=C\c1ccc(Cl)cc1)c1ccccc1` [compound 307] yielded an EC50 on human CB1 receptor [3] of 100 nM.
`C[C@H](NC(=O)c1nn(-c2ccc(Cl)cc2Cl)c2c1CCCC2=Cc1ccc(F)cc1)C1CCCCC1` [compound 309] came in with an IC50 at human CB1 receptor [1] of 47 nM. The EC50 on human CB1 receptor [3] was determined as 81 nM.
For `COc1cccc(C2CCCc3c(C(=O)N[C@H](C)c4ccccc4)nn(-c4ccc(Cl)cc4Cl)c32)c1` (stereo partly shown) [compound 312], on human CB1 receptor [3], the EC50 was found to be 36 nM.
The same measure, in the same setting: in the case of `O=C(NCc1ccccn1)c1nn(-c2ccc(Cl)cc2Cl)c2c1CCCC2=Cc1ccc(Cl)cc1` [compound 319] it was 50 nM.
`CC(NC(=O)c1nn(-c2ccc(Cl)cc2Cl)c2c1CCC/C2=C\c1ccc(Cl)cc1)c1ccccn1` (stereo not shown) [compound 320] showed an IC50 against human CB1 receptor [1] of 14 nM. This molecule showed an EC50 on human CB1 receptor [3] of 1 nM.

By IC50 is commonly meant the point on the concentration scale where inhibition reaches its midpoint. The term EC50 denotes the concentration needed to bring the measured effect to its halfway point.
